Consider 31 compounds from patent publication US20170001990A1 (Genentech, Inc., priority 2014, published 2017).

Where “and” joins values, the source holds several entries; their conditions need not be identical. Identical values can stand only once.

The test addresses Human recombinant carboxy-terminal his-tagged LDHA (amino acids 2-332) (Homo sapiens, UniProt P00338). Briefly: LDHA enzyme inhibition assay (NADH fluorescence). To be noted: LDHA IC50 (μM), 1 nM LDHA, NADH and pyruvate, stereochemistry of tested sample given.
The term IC50 denotes the midpoint of a concentration-inhibition curve. For the compound `O=C1CC(c2ccsc2)(c2cccc(Oc3ccc(F)c(Cl)c3)n2)NC(=O)C1Sc1ccccc1Cl` (single isomer, unassigned) [Example 112, 6-(6-(3-chloro-4-fluoro-phenoxy)pyridin-2-yl)-3-((2-chlorophenyl)thio)-6-(thiophen-3-yl) piperidine-2,4-dione], the IC50 was determined as 0.01 µM. The result for `O=C1CC(c2ccsc2)(c2cccc(Cc3ccccc3)n2)NC(=O)C1Sc1ccccc1Cl` (single isomer, unassigned) [Example 204, 6-(6-benzyl-2-pyridyl)-3-(2-chlorophenyl)sulfanyl-6-(3-thienyl)piperidine-2,4-dione] reads 0.007 µM; that for `CC(Oc1cccc(C2(c3ccsc3)CC(=O)C(Sc3ccccc3Cl)C(=O)N2)n1)C(F)(F)F` (stereo not shown) [Example 231, 3-(2-chlorophenyl)sulfanyl-6-(3-thienyl)-6-[6-(2,2,2-trifluoro-1-methyl-ethoxy)-2-pyridyl]piperidine-2,4-dione], 0.009 µM; that for `O=C1CC(c2ccsc2)(c2cccc(Oc3ccc4c(c3)CCC4)n2)NC(=O)C1Sc1ccccc1Cl` (stereo not shown) [Example 60, 5-((2-chlorophenyl)thio)-6′-((2,3-dihydro-1H-inden-5-yl)oxy)-4-hydroxy-2-(thiophen-3-yl)-2,3-dihydro-[2,2′-bipyridin]-6(1H)-one], 0.009 µM. Next, `O=C1CC(c2ccc(N3CCOCC3)cc2)(c2cscn2)NC(=O)C1Sc1ccccc1Cl` (stereo not shown) [Example 42, 3-((2-chlorophenyl)thio)-6-(4-morpholinophenyl)-6-(thiazol-4-yl) piperidine-2,4-dione]: 0.005 µM and 0.01 µM and 0.017 µM.

`O=C1CC(c2ccsc2)(c2cccc(OCCC3CCCCC3)n2)NC(=O)C1Sc1ccccc1Cl` (single isomer, unassigned) [Example 185, 3-(2-chlorophenyl)sulfanyl-6-[6-(2-cyclohexylethoxy)-2-pyridyl]-6-(3-thienyl) piperidine-2,4-dione]: the IC50 turned out to be 0.055 µM. The result for `O=C1CC(c2ccsc2)(c2cccc(Oc3cccc(C(F)(F)F)c3)n2)NC(=O)C1Sc1ccccc1Cl` (stereo not shown) [Example 153, 3-(2-chlorophenyl)sulfanyl-6-(3-thienyl)-6-[6-[3-(trifluoromethyl)phenoxy]-2-pyridyl]piperidine-2,4-dione] reads 0.012 µM. The result for `O=C1CC(c2ccsc2)(c2cccc(Oc3ccc(F)c(F)c3)n2)NC(=O)C1Oc1ccccc1Cl` (stereo not shown) [Example 217, 3-(2-chlorophenoxy)-6-[6-(3,4-difluorophenoxy)-2-pyridyl]-6-(3-thienyl) piperidine-2,4-dione] reads 0.01 µM.

On to `O=C1CC(c2ccsc2)(c2cccc(OCC3CCCO3)n2)NC(=O)C1Sc1ccccc1Cl` (single isomer, unassigned) [Example 195, 3-(2-chlorophenyl)sulfanyl-6-[6-(tetrahydrofuran-2-ylmethoxy)-2-pyridyl]-6-(3-thienyl)piperidine-2,4-dione], for which the IC50 came out at 0.143 µM.

For `CC(CC1CC1)Oc1cccc(C2(c3ccsc3)CC(=O)C(Sc3ccccc3Cl)C(=O)N2)n1` (single isomer, unassigned) [Example 251, 3-(2-chlorophenyl)sulfanyl-6-[6-(2-cyclopropyl-1-methyl-ethoxy)-2-pyridyl]-6-(3-thienyl) piperidine-2,4-dione], the half-maximal inhibitory concentration (IC50) was 0.019 µM. Take `O=C1CC(c2ccsc2)(c2cccc(OCC3COC3)n2)NC(=O)C1Sc1ccccc1Cl` (single isomer, unassigned) [Example 225, 3-(2-chlorophenyl)sulfanyl-6-[6-(oxetan-3-ylmethoxy)-2-pyridyl]-6-(3-thienyl) piperidine-2,4-dione]: the IC50 was 0.103 µM. Next, `O=C1CC(c2ccsc2)(c2cccc(Sc3ccc(F)cc3)n2)NC(=O)C1Sc1ccccc1Cl` (single isomer, unassigned) [Example 198, 3-(2-chlorophenyl)sulfanyl-6-[6-(4-fluorophenyl)sulfanyl-2-pyridyl]-6-(3-thienyl)piperidine-2,4-dione]: 0.177 µM; `O=C1CC(c2ccsc2)(c2cccc(OC3CCCCC3)n2)NC(=O)C1Sc1ccccc1Cl` (single isomer, unassigned) [Example 205, 3-(2-chlorophenyl)sulfanyl-6-[6-(cyclohexoxy)-2-pyridyl]-6-(3-thienyl) piperidine-2,4-dione]: 0.058 µM; `Cn1nncc1-c1ccccc1Oc1cccc(C2(c3ccsc3)CC(=O)C(Sc3ccccc3Cl)C(=O)N2)n1` (stereo not shown) [Example 21, 3-(2-chlorophenyl)sulfanyl-6-[6-[2-(3-methyltriazol-4-yl)phenoxy]-2-pyridyl]-6-(3-thienyl)piperidine-2,4-dione]: 0.119 µM. Next, `O=C1CC(c2ccsc2)(c2cccc(Oc3ccc(Cl)cc3)n2)NC(=O)C1Sc1ccccc1Cl` (stereo not shown) [Example 175, 6-[6-(4-chlorophenoxy)-2-pyridyl]-3-(2-chlorophenyl) sulfanyl-6-(3-thienyl) piperidine-2,4-dione]: 0.013 µM; `CC1CC1COc1cccc(C2(c3ccsc3)CC(=O)C(Sc3ccccc3Cl)C(=O)N2)n1` (stereo not shown) [Example 183, 3-(2-chlorophenyl)sulfanyl-6-[6-[(2-methylcyclo-propyl)methoxy]-2-pyridyl]-6-(3-thienyl)piperidine-2,4-dione]: 0.005 µM; `O=C1CC(c2ccsc2)(c2cccc(OCC3CC3)n2)NC(=O)C1Sc1ccccc1Cl` (single isomer, unassigned) [Example 97, 3-(2-chlorophenyl)sulfanyl-6-[6-(cyclopropyl-methoxy)-2-pyridyl]-6-(3-thienyl)piperidine-2,4-dione]: 0.03 µM. The result for `O=C1CC(c2ccsc2)(c2cccc(Cc3cccc(F)c3)n2)NC(=O)C1Sc1ccccc1Cl` (stereo not shown) [Example 5, 3-(2-chlorophenyl)sulfanyl-6-[6-[(3-fluorophenyl)methyl]-2-pyridyl]-6-(3-thienyl)piperidine-2,4-dione] reads 0.028 µM and 0.009 µM and 0.066 µM. With `O=C1CC(c2ccsc2)(c2cccc(Oc3ccc(F)c4cccnc34)n2)NC(=O)C1Sc1ccccc1Cl` (stereo not shown) [Example 98, 3-(2-chlorophenyl)sulfanyl-6-[6-[(5-fluoro-8-quinolyl)oxy]-2-pyridyl]-6-(3-thienyl)piperidine-2,4-dione], the IC50 is 0.167 µM.

For `O=C1CC(c2ccsc2)(c2cccc(Cc3ccc(F)c(F)c3)n2)NC(=O)C1Sc1ccccc1Cl` (single isomer, unassigned) [Example 256, 3-((2-chlorophenyl)thio)-6-(6-(3,4-difluorobenzyl)pyridin-2-yl)-6-(thiophen-3-yl)piperidine-2,4-dione], the IC50 is 0.062 µM. The result for `O=C1CC(c2ccsc2)(c2cccc(Cc3ccc(F)c(F)c3)n2)NC(=O)C1Sc1ccccc1Cl` (single isomer, unassigned) [Example 282, 3-((2-chlorophenyl)thio)-6-(6-(3,4-difluorobenzyl)pyridin-2-yl)-6-(thiophen-3-yl)piperidine-2,4-dione] reads 0.012 µM.

For the compound `O=C1CC(c2ccsc2)(c2cccc(OCc3ccccc3)n2)NC(=O)C1Sc1ccccc1Cl` (stereo not shown) [Example 68, 6′-(benzyloxy)-5-((2-chlorophenyl)thio)-4-hydroxy-2-(thiophen-3-yl)-2,3-dihydro-[2,2′-bipyridin]-6(1H)-one], the IC50 came to 0.008 µM. Next, `O=C1CC(c2ccsc2)(c2cccc(OCC(F)F)n2)NC(=O)C1Sc1ccccc1Cl` (single isomer, unassigned) [Example 245, 3-(2-chlorophenyl)sulfanyl-6-[6-(2,2-difluoroethoxy)-2-pyridyl]-6-(3-thienyl) piperidine-2,4-dione]: 0.018 µM; `COc1cc(Cc2cccc(C3(c4ccsc4)CC(=O)C(Sc4ccccc4Cl)C(=O)N3)n2)ccc1F` (single isomer, unassigned) [Example 283, 3-((2-chlorophenyl)thio)-6-(6-(4-fluoro-3-methoxy-benzyl)pyridin-2-yl)-6-(thiophen-3-yl)piperidine-2,4-dione]: 0.037 µM. In the case of `CC(Oc1cccc(C2(c3ccsc3)CC(=O)C(Sc3ccccc3Cl)C(=O)N2)n1)C1CC1` (single isomer, unassigned) [Example 159, 3-((2-chlorophenyl)thio)-6-(6-(1-cyclopropyl-ethoxy)pyridin-2-yl)-6-(thiophen-3-yl)piperidine-2,4-dione], the IC50 was 0.004 µM. The result for `O=C1CC(c2ccsc2)(c2cccc(N3CC(C4CCOCC4)C3)n2)NC(=O)C1Sc1ccccc1Cl` (stereo not shown) [Example 162, 3-(2-chlorophenyl)sulfanyl-6-[6-(3-tetrahydropyran-4-ylazetidin-1-yl)-2-pyridyl]-6-(3-thienyl) piperidine-2,4-dione] reads 0.004 µM; that for `O=C1CC(c2ccsc2)(c2cccc(OCCC3CCCC3)n2)NC(=O)C1Sc1ccccc1Cl` (single isomer, unassigned) [Example 134, 3-(2-chlorophenyl)sulfanyl-6-[6-(2-cyclopentyl-ethoxy)-2-pyridyl]-6-(3-thienyl)piperidine-2,4-dione], 0.008 µM. `O=C1CC(c2ccc(N3CCOCC3)cc2)(c2cccc(OC3CCCCC3)n2)NC(=O)C1Sc1ccccc1Cl` (stereo not shown) [Example 41, 3-((2-chlorophenyl)thio)-6-(6-(cyclohexyloxy)pyridin-2-yl)-6-(4-morpholinophenyl)piperidine-2,4-dione]: the IC50 worked out at 0.016 µM. Next, `O=C1CC(c2ccsc2)(c2cccc(OCc3ccncc3)n2)NC(=O)C1Sc1ccccc1Cl` (stereo not shown) [Example 186, 3-(2-chlorophenyl)sulfanyl-6-[6-(4-pyridylmethoxy)-2-pyridyl]-6-(3-thienyl) piperidine-2,4-dione]: 0.021 µM; `O=C1CC(c2ccsc2)(c2cccc(OCc3ccc(F)cc3)n2)NC(=O)C1Sc1ccccc1Cl` (single isomer, unassigned) [Example 289, 3-((2-chlorophenyl)thio)-6-(6-((4-fluorobenzyl)oxy)pyridin-2-yl)-6-(thiophen-3-yl)piperidine-2,4-dione]: 0.022 µM; `O=C1CC(c2ccsc2)(c2cccc(OCC3CCCCC3)n2)NC(=O)C1Sc1ccccc1Cl` (stereo not shown) [Example 308, 3-((2-chlorophenyl)thio)-6-(6-(cyclohexylmethoxy)pyridin-2-yl)-6-(thiophen-3-yl)piperidine-2,4-dione]: 0.825 µM.
